Data published in patent US5274141A, “Designed quinone- and hydroquinone-containing cyclic enediyneols and enediyneones having DNA cleaving and cytotoxic properties” (The Scripps Research Institute, priority 1992, dated 1993).
Like-named read-outs stand apart in the source and are kept apart here.

What was measured:
[1] = test system: Normal Human Dermal Fibroblast (NHDF); test: Sulforhodamine B cytotoxicity assay, NHDF; format: cell-based; conditions: for toxicity to NHDF cells compared: compared with well known anticancer drugs
Excerpt: (§1) In addition to the DNA cleavage screening already discussed, several of the before-described compounds were screened against a panel of twelve cancerous cell lines as target cells and four "normal" cell preparations. This screening utilized a sulforhodamine B cytotoxicity assay as discussed below.
(§2) SULFORHODAMINE B CYTOTOXICITY ASSAY
(§3) 1. Preparation of target cells in 96-well plates
(§4) 2. Preparation of sample drugs and toxic control
(§5) 3. Addition of Sample Drugs, Compounds and Controls to 96-well Plates
(§6) f. Incubate (37° C., 5-10 percent CO2 in humidified incubator) plates for a total of 72 hours. Check plates at 24 hour intervals microscopically for signs of cytotoxicity.
(§7) IC50 values; i.e., the concentration of Compound required to kill one-half of the treated cells, where then calculated.
(§8) The cell lines assayed are listed below along with their respective sources:
(§9) Separate control studies were also carried out using the following well known anticancer drugs with the following IC50 values for NHDF and cancer cells.

[2] = test system: Human Mammary Epithelial Cells (HMEC); test: Sulforhodamine B cytotoxicity assay, HMEC; format: cell-based; conditions: normal, 72 hours
Excerpt: as §1, §2, §3, §4, §5, §6, §7
(§10) The cell lines assayed are listed below along with their respective sources: […]

[3] = test system: Normal Human Epidermal Keratinocytes (NHEK); test: Sulforhodamine B cytotoxicity assay, NHEK; format: cell-based; conditions: 72 hours
Excerpt: as §1, §2, §3, §4, §5, §6, §7, §10

[4] = test system: Chinese Hamster Ovary (CHO); test: Sulforhodamine B cytotoxicity assay, CHO; format: cell-based; conditions: Cricetulus griseus, normal, 72 hours
Excerpt: as §1, §2, §3, §4, §5, §6, §7, §10

SK-Mel-28 (Melanoma) = test: Sulforhodamine B cytotoxicity assay, SK-Mel-28; format: cell-based; conditions: Homo sapiens, 72 hours
Excerpt: as §1, §2, §3, §4, §5, §6, §7, §10

[5] = test system: Capan-1 (Pancreatic Carcinoma); test: Sulforhodamine B cytotoxicity assay, Capan-1; format: cell-based; conditions: Homo sapiens, 72 hours
Excerpt: as §1, §2, §3, §4, §5, §6, §7, §10

H-322 (Lung Carcinoma) = test: Sulforhodamine B cytotoxicity assay, H-322; format: cell-based; conditions: Homo sapiens, NCI-H322, 72 hours
Excerpt: as §1, §2, §3, §4, §5, §6, §7, §10

[6] = test system: UCLA P-3 (Lung Carcinoma); test: Sulforhodamine B cytotoxicity assay, UCLA P-3; format: cell-based; conditions: Homo sapiens, 72 hours
Excerpt: as §1, §2, §3, §4, §5, §6, §7, §10

MCF-7 (Breast Carcinoma) = test: Sulforhodamine B cytotoxicity assay, MCF-7; format: cell-based; conditions: Homo sapiens, MCF7, 72 hours
Excerpt: as §1, §2, §3, §4, §5, §6, §7, §10

[7] = test system: Ovcar-3 (Ovarian Carcinoma); test: Sulforhodamine B cytotoxicity assay, Ovcar-3; format: cell-based; conditions: Homo sapiens, 72 hours
Excerpt: as §1, §2, §3, §4, §5, §6, §7, §10

HT-29 (Colon Carcinoma) = test: Sulforhodamine B cytotoxicity assay, HT-29; format: cell-based; conditions: Homo sapiens, 72 hours
Excerpt: as §1, §2, §3, §4, §5, §6, §7, §10

[8] = test system: HL-60 (Promyeocytic Leukemia); test: Sulforhodamine B cytotoxicity assay, HL-60; format: cell-based; conditions: Homo sapiens, 72 hours
Excerpt: as §1, §2, §3, §4, §5, §6, §7, §10

Molt-4 (T-Cell Leukemia) = test: Sulforhodamine B cytotoxicity assay, Molt-4; format: cell-based; conditions: Homo sapiens
Excerpt: as §1, §2, §3, §4, §5, §6, §7, §10

P-388 (Mouse Leukemia) = test: Sulforhodamine B cytotoxicity assay, P-388; format: cell-based; conditions: P388, 72 hours
Excerpt: as §1, §2, §3, §4, §5, §6, §7, §10

φX174 form I DNA = test: Cleavage of cell-free supercoiled DNA, agarose gel electrophoresis; format: biochemical; conditions: pH 7.4, 37° C., 15 hours
Method: FIG. 1 is a photograph of an ethidium bromide stained 1 percent agarose electrophoresis gel o that illustrates the cleavage of .phi.X174 form I DNA (100 μM base pairs) by Compounds 7, 8, 9, 10 and 12 at 50-5000 μM after 15 hours at 37° C. at a pH value of 7.4 in 50 […]. […] Lanes 2-10 correspond to the following: Lane 2: Compound 12 (100 μM); Lane 3: Compound 10 (100 μM); Lane 4: Compound 7 (100 μM); Lane 5: Compound 8 (100 μM); Lanes 6-10: Compound 9 (50, 100, 500, 1000 and 5000 μM). Forms I, II and III shown to the left of the photograph show the relative migrations of supercoiled (form I) relaxed (form II) and linear (form III) DNA, respectively.
To a vial containing 9 microliters of a cell-free .phi.X174 Type I double-stranded DNA in pH 7.4 […] Tris-HCl buffer was added 1 microliter of a 1.0 millimolar or other appropriate ethanol solution of Compounds 7, 8, 9, 10 and 12.
The vials were then placed in a 37° C. oven for 15 hours. A 2.0 microliter portion of glycerol loading buffer solution containing bromothymol blue indicator was added to each vial. A 10 microliter aliquot was then drawn from each. Gel electrophoresis analysis of the aliquots was performed using a 1.0 percent agarose gel with ethidium bromide run at 115 volts for one hour. DNA cleavage was indicated by the formation of Type II DNA, which was detected by visual inspection of the gel under 310 nanometer ultraviolet light.

[9] = Cycloaromatization studies using 1,4-cyclohexadiene in toluene; format: physicochemical
Excerpt: These reactions provided Compounds 11-13 as shown schematically in Scheme 2, below. [drawing 9]

[10] = Stability observed during synthesis; format: physicochemical
Method: Finally, PCC oxidation (4.0 equivalents PCC, 4Å molecular sieves in CH2 Cl2 at 25° C. for 0.5 hour) of Compound 8 afforded the tricarbonyl Compound 10 in 49 percent yield as step i.

[11] = test system: SIHA (Cervical Carcinoma); test: Sulforhodamine B cytotoxicity assay, SIHA; format: cell-based; conditions: Homo sapiens, 72 hours
Excerpt: as §1, §2, §3, §4, §5, §6, §7, §10

786-0 (Renal Carcinoma) = test: Sulforhodamine B cytotoxicity assay, 786-0; format: cell-based; conditions: Homo sapiens, 72 hours
Excerpt: as §1, §2, §3, §4, §5, §6, §7, §10

Cancer Cells = test: cells; format: cell-based, human or mouse
Excerpt: as §1, §2, §3, §4, §5, §6, §7, §8, §9

[12] = control anticancer drugs, read-out: Range of Average IC50 Values, NHDF
[13] = Homo sapiens, normal, 72 hours, read-out: IC50 Values
[14] = MOLT-4, 72 hours, read-out: IC50 Values
[15] = 110° C., 1,4-cyclohexadiene in toluene
[16] = Molt-4 leukemia cells, read-out: IC50
[17] = 55° C., 1,4-cyclohexadiene in toluene
[18] = Homo sapiens, control anticancer drugs, read-out: Range of Average IC50 Values, NHDF

| Molecule | IC50 [1, 13] [µM] | IC50 [2] [µM] | IC50 [3] [µM] | IC50 [4] [µM] | IC50 (SK-Mel-28 (Melanoma)) [µM] | IC50 [5] [µM] | IC50 (H-322 (Lung Carcinoma)) [µM] | IC50 [6] [µM] | IC50 (MCF-7 (Breast Carcinoma)) [µM] | IC50 [7] [µM] | IC50 (HT-29 (Colon Carcinoma)) [µM] | IC50 [8] [µM] | IC50 (Molt-4 (T-Cell Leukemia); [14]) [µM] | DNA cleaving activity (φX174 form I DNA) | also measured |
| --- | --- | --- | --- | --- | --- | --- | --- | --- | --- | --- | --- | --- | --- | --- | --- |
| N.N.[Cl][Pt][Cl] [Cis-Platin, reference compound] | – | – | – | – | – | – | – | – | – | – | – | – | – | – | IC50 [1, 12]: 50 µM |
| Cc1c(C)c(OC(=O)C(C)(C)C)c2c(c1OC(=O)C(C)(C)C)C#CCCCC(O)C#C2 (centres unmarked) [Compound 7] | 100 | 100 | 25 | 100 | 100 | 13 | 100 | 13 | 50 | 13 | 13 | 100 | 100 | no DNA cleaving activity | IC50 (P-388 (Mouse Leukemia)): 13 µM; half life (t1/2) of cycloaromatization [9, 15]: 74 h; stability ([10]; ambient temperature): quite stable |
| CC1=C(C)C(=O)C2=C(C#CCCCC(O)C#C2)C1=O (centres unmarked) [Compound 8] | 3.1 | 3.1 | 3.1 | 3.2 | 6.3 | 3.1 | 13 | 6.3 | 6.3 | 6.3 | 6.3 | 7.8 | 0.1 | significant DNA damaging properties | toxicity to NHDF cells compared [1]: similarly toxic to the normal NHDF and cancer cells except Molt-4 cells; IC50 (Molt-4 (T-Cell Leukemia); [16]): 0.5 µM; IC50 (P-388 (Mouse Leukemia)): 2 µM; half life (t1/2) of cycloaromatization [9, 17]: 2.6 h; thermal stability [10]: thermally labile |
| Cc1c(C)c(O)c2c(c1O)C#CCCCC(O)C#C2 (centres unmarked) [Compound 9] | 25 | 25 | 13 | 13 | 25 | 13 | 25 | 25 | 25 | 25 | 25 | 1.6 | 50 | significant DNA damaging properties | IC50 (P-388 (Mouse Leukemia)): 3.1 µM; cycloaromatization behaviour [9, 15]: complicated kinetics due to ease of conversion to Compound 8 even under oxygen extrusion conditions, but seems quite stable prior to oxidation; air sensitivity [10]: air-sensitive; stability ([10]; neutral conditions): relatively stable |
| CC1=C(C)C(=O)C2=C(C#CCCCC(=O)C#C2)C1=O [Compound 10] | 100 | 100 | 100 | 100 | 100 | 100 | 100 | 50 | 13 | 25 | 50 | 25 | 1.19 | significant DNA damaging properties | toxicity to NHDF cells compared [1]: less toxic than those well known anticancer drugs against the NHDF cells; IC50 [11]: 13 µM; IC50 (786-0 (Renal Carcinoma)): 50 µM; IC50 (Molt-4 (T-Cell Leukemia); [16]): 1 µM; potency in cytotoxicity studies (Cancer Cells; variety of cell lines, in words): most impressive results; half life (t1/2) of cycloaromatization [9, 17]: 0.533 h; reactivity in cycloaromatization studies ([9]; series 7-10): most reactive member of the series 7-10 |
| CC1=C(C)C(=O)c2cc3c(cc2C1=O)CCCC3O (centres unmarked) [Compound 12] | – | – | – | – | – | – | – | – | – | – | – | – | – | minor activity | – |
| COc1cccc2c1C(=O)c1c(O)c3c(c(O)c1C2=O)C[C@@](O)(C(=O)CO)C[C@@H]3O[C@H]1C[C@H](N)[C@H](O)[C@H](C)O1 [Doxorubicin, reference compound] | – | – | – | – | – | – | – | – | – | – | – | – | – | – | IC50 (Cancer Cells; control anticancer drugs, cancer cells, read-out: Range of Average IC50 Values, Cancer Cells): 0.00016 to 0.098 µM |
| COC1=C(C(=O)O)[C@H](C)[C@@]23O[C@]24c2cc(O)c5c(c2N[C@H]3C#C/C=C\C#C[C@H]14)C(=O)c1c(O)ccc(O)c1C5=O [Dynemicin A, reference compound] | – | – | – | – | – | – | – | – | – | – | – | – | – | – | IC50 [1, 12]: 0.01 µM |
| N[C@@H](Cc1ccc(N(CCCl)CCCl)cc1)C(=O)O [Melphelan, reference compound] | – | – | – | – | – | – | – | – | – | – | – | – | – | – | IC50 ([1]; Homo sapiens, read-out: Range of Average IC50 Values, NHDF): 100 µM |
| CN(Cc1cnc2nc(N)nc(N)c2n1)c1ccc(C(=O)N[C@@H](CCC(=O)O)C(=O)O)cc1 [Methotrexate, reference compound] | – | – | – | – | – | – | – | – | – | – | – | – | – | – | IC50 [1, 18]: 50 µM |
| CC(=O)O[C@H]1C(=O)[C@@]2(C)[C@H]([C@H](OC(=O)c3ccccc3)[C@]3(O)C[C@H](OC(=O)[C@H](O)[C@@H](NC(=O)c4ccccc4)c4ccccc4)C(C)=C1C3(C)C)[C@]1(OC(C)=O)CO[C@@H]1C[C@@H]2O [Taxol, reference compound] | – | – | – | – | – | – | – | – | – | – | – | – | – | – | IC50 [1, 18]: 0.01 µM |
| Calicheamicin [reference compound] | – | – | – | – | – | – | – | – | – | – | – | – | – | – | IC50 [1, 12]: 0.0025 µM |
